Laboratory results reported in patent US10865203B2, “Ligands selective to alpha 6 subunit-containing GABAA receptors and their methods of use” (UWM Research Foundation, Inc., priority 2015, dated 2020).
Entries after “also recorded” stand apart in the source; their conditions may differ.

What was measured:
[1] = Microsomal stability assay, mouse liver microsomes; type: in vitro ADME; conditions: 10 μM test compound, 0.5 mg/mL protein, 37° C.
Method: (§1) 4 μL of 1 mM test compound at a final concentration of 10 μM dissolved in DMSO/ACN/Methanol/Ethanol was preincubated at 37° C. for 5 minutes on a digital heating shaking dry bath (Fischer scientific, Pittsburgh, Pa.) in a mixture containing 282 μL of water, 80 μL of phosphate buffer (0.5 M, pH 7.4), 20 μL of NADPH Regenerating System Solution A (BD Bioscience, San Jose, Calif.) and 4 μL of NADPH Regenerating System Solution B (BD Bioscience, San Jose, Calif.) in a total volume of 391.2 μL. Following preincubation, the reaction was initiated by addition of 8.8 μL of either human liver microsomes (BD Gentest, San Jose, Calif.), mouse liver microsomes (Life technologies, Rockford, Ill.), at a protein concentration of 0.5 mg/mL. Aliquots of 50 μL were taken at time intervals of 0 (without microsomes), 10, 20, 30, 40, 50 and 60 minutes. Each aliquot was added to 100 μL of cold acetonitrile solution containing 1 μM/2 μM internal standard. This was followed by sonication for 10 seconds and centrifugation at 10,000 rpm for 5 minutes. 100 μL of the supernatant was transferred into Spin-X HPLC filter tubes (Corning Incorporated, NY) and centrifuged at 13,000 rpm for 5 minutes. […] The ratio of the peak areas of the internal standard and test compound was calculated for every time point and the natural log of the ratio were plotted against time to determine the linear slope (k). […] All experiments were repeated three times in duplicates.

[2] = Microsomal stability assay, human liver microsomes; type: in vitro ADME; conditions: 10 μM test compound, 0.5 mg/mL protein, 37° C.
Method: as §1

[3] = system: αxβx, αxβ3γ2 and αβδ receptors; assay: Electrophysiology in Xenopus oocytes, functional screening over all tested receptors; type: cell-based, rat
Method: Mature female Xenopus laevis (Nasco, Fort Atkinson, Wis., USA) were anaesthetized in a bath of ice-cold 0.17% Tricain (Ethyl-m-aminobenzoat, Sigma-Aldrich, St. Louis, Mo., USA) before decapitation and transfer of the frog's ovary to ND96 medium (96 mM NaCl, 2 mM KCl, 1 mM MgCl2, 5 mM HEPES; pH 7.5). Following incubation in 1 mg/mL collagenase (Sigma-Aldrich, St. Louis, Mo., USA) for 30 min, stage 5 to 6 oocytes were singled out of the ovary and defolliculated using a platinum wire loop. Oocytes were stored and incubated at 18° C. in NDE medium (96 mM NaCl, 2 mM KCl, 1 mM MgCl2, 5 mM HEPES, 1.8 mM CaCl2; pH 7.5) that was supplemented with 100 U per mL-1 penicillin, 100 μg per mL-1 streptomycin and 2.5 mM pyruvate. Oocytes were injected with an aqueous solution of mRNA. A total of 2.5 ng of mRNA per oocyte was injected. […] Maximum currents measured in mRNA injected oocytes were in the microampere range for all receptor subtypes. […] Data were digitized using a Digidata 1322A or 1550 data acquisition system (Axon Instruments, Union City, Calif., USA), recorded using Clampex 10.5 software (Molecular Devices, Sunnyvale, Calif., USA), and analyzed using Clampfit 10.5 and GraphPad Prism 6.0 (La Jolla, Calif., USA) software. […]
For selected test compounds full dose response curves were recorded in α1-6β3γ2 receptors. […]

[4] = system: GABA-A receptors, including α6 GABA-ARs; assay: Modulation of GABA-A receptors by constituent of Cl leaves

| SMILES | % left after 1 hr. (MLM) [1] | Half-life (min) (MLM) [1] | % left after 1 hr. (HLM) [2] | activity in all tested receptors [3] | modulation of GABA-A receptors [4] |
| --- | --- | --- | --- | --- | --- |
| [2H]C([2H])([2H])Oc1ccccc1-n1nc2c3cc(Cl)ccc3[nH]cc-2c1=O [DK-I-87-1, 8-Chloro-2-(2-methoxy-d3-phenyl)-2,5-dihydro-3H-pyrazolo[4,3-c]quinolin-3-one] | 94.91 ± 0.10% | 993 ± 189 min | 94.7 ± 0.07% | inactive in all receptors that were tested so far; also recorded: essentially inactive in all tested receptors | – |
| COc1ccccc1-n1nc2c3cc(Cl)ccc3[nH]cc-2c1=O [LAU 165, 8-Chloro-2-(2-methoxyphenyl)-2H-pyrazolo[4,3-c]quinolin-3(5H)-one] | – | – | – | inactive in all receptors that were tested so far; also recorded: essentially inactive in all tested receptors | – |
| COc1c(O)cc2oc(-c3ccc(O)cc3)cc(=O)c2c1O [hispidulin] | – | – | – | – | positive allosteric modulator |
